Structures can show the parent of a compound that is named as a salt. Where two headings read alike, the source gives them in different places.
Key:
[1] = biological target: T1, VMAT2 (Homo sapiens, UniProt Q05940); assay: hVMAT2 [3H]DTBZ ([3H]DHTB) binding assay; parameters: expressed in transfected cells; host or cells: HEK (human embryonic kidney) cells
Method: (§1) Membrane preparation for binding, uptake and release assays using HEK-hVMAT2 cells: Human embryonic kidney cells expressing the human vesicular monoamine transporter 2 (HEK-hVMAT2) were used. HEK-hVMAT2 cells were grown until confluent. The media was removed from plates, solution A [sucrose (0.32 M) with protease inhibitors] was added to the plate, and cells were scraped from plate. Cells were homogenized with 12 strokes of a glass/glass homogenizer. The homogenate was centrifuged at 800×g for 10 min. The supernatant was removed and saved, and the pellet was resuspended, homogenized and centrifuged as above. The supernatants were combined and centrifuged at 10,000×g for 20 min. The pellet was resuspended in solution A (0.75 ml). The membranes were osmotically shocked by addition of 2.625 ml ice cold water and homogenized by 5 strokes of a glass/Teflon homogenizer. The osmolarity was reestablished with addition of Tris (338 μl, 0.25M, pH 7.4 at 4° C.), sodium potassium tartrate (338 μl, 1.0 M), and MgSO4 (4 μl, 0.9M). The homogenate was centrifuged at 20,000×g for 20 min.
Binding was terminated by filtration over Whatman GF/C filters using a Tomtec 96-well cell harvester. Filters were washed for six seconds with ice-cold saline. Scintillation fluid was added to each square and radioactivity remaining on the filters was determined using a Wallac μ- or beta-plate reader. Specific binding was defined as the difference in binding observed in the presence and absence of Ro4-1284 (10 μM, generously supplied by Hoffman LaRoche). Three or more independent competition experiments were conducted with duplicate determinations.

[2] = biological target: T1, VMAT2; assay: hVMAT2 5HT Uptake; assay type: biochemical; parameters: expressed in transfected cells; host or cells: HEK (human embryonic kidney) cells
Method: as §1

[3] = cells printed in μM under a head in nM, HEK-hVMAT2 membranes
[4] = [^3H]5HT uptake, HEK-hVMAT2 preparation, read-out: hVMAT2 5HT Uptake IC50 (nM) ± SEM

T1 sequence (Q05940 whole entry): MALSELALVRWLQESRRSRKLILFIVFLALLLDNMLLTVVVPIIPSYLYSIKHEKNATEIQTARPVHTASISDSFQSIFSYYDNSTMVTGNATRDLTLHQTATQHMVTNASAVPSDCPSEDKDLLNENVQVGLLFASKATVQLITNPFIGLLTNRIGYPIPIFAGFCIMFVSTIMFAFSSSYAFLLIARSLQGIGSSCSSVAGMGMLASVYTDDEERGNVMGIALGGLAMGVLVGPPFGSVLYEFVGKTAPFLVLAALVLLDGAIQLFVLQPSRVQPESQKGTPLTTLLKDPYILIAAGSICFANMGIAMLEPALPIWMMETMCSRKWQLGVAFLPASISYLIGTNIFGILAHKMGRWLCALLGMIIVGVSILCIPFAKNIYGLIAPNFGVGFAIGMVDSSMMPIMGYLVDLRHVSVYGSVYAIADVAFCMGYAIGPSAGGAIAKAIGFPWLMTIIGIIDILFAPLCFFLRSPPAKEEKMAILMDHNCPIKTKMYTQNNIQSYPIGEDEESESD

| melting point [°C] | Ki [1, 3] [µM] | IC50 [2, 4] [nM] | Ki [1] [µM] | IC50 [2] [nM] | Structure (SMILES) |
| --- | --- | --- | --- | --- | --- |
| 153.5 to 156.5 | > 10 | 342 ± 103 | – | – | CCOC(=O)[C@@H]1CN(CCn2c(=O)[nH]c3sccc3c2=O)CC[C@@H]1c1cccc(C(F)(F)F)c1 (relative stereo) [Compound 7d, syn-ethyl 1-(2-(2,4-dioxo-1,2-dihydrothieno[2,3-d]pyrimidin-3(4H)-yl)ethyl)-4-(3-(trifluoromethyl)phenyl)piperidine-3-carboxylate] |
| 170.6 to 171.4 | > 10 | 63 ± 10 | – | – | CCOC(=O)[C@@H]1CN(CCn2c(=O)[nH]c3ccccc3c2=O)CC[C@@H]1c1cccc(F)c1 (racemic) [Compound 5e] |
| 182.8 to 183.6 | > 10 | 28 ± 12 | – | – | CCOC(=O)[C@H]1CN(CCn2c(=O)[nH]c3ccccc3c2=O)CC[C@H]1c1ccccc1F (racemic) [Compound 5x, (±)-syn-Ethyl 1-(2-(2,4-dioxo-1,2-dihydroquinazolin-3(4H)-yl)ethyl)-4-(2-fluorophenyl)piperidine-3-carboxylate] |
| 150 to 151.5 | – | – | – | – | CCOC(=O)[C@H]1CN(CCn2c(=O)[nH]c3ccccc3c2=O)CC[C@H]1c1ccc(OC(F)(F)F)cc1 (racemic) (as salt: HCl) [Compound 5ii, (±)-syn-ethyl 1-(2-(2,4-dioxo-1,2-dihydroquinazolin-3(4H)-yl)ethyl)-4-(4-(trifluoromethoxy)phenyl)piperidine-3-carboxylate] |
| 153.5 to 154.5 | – | – | – | – | CCOC(=O)C1=C(c2ccccc2C(F)(F)F)CCN(CCn2c(=O)[nH]c3ccccc3c2=O)C1 (as salt: HCl) [Compound 5hh, Ethyl 1-(2-(2,4-dioxo-1,2-dihydroquinazolin-3(4H)-yl)ethyl)-4-(2-(trifluoromethyl)phenyl)-1,2,5,6-tetrahydropyridine-3-carboxylate] |
| 153.3 to 155.1 | > 10 | 200 ± 51 | – | – | CCOC(=O)[C@@H]1CN(CCn2c(=O)[nH]c3sccc3c2=O)CC[C@@H]1c1cccc(F)c1 (racemic) [Compound 7b, (±) syn-ethyl 1-(2-(2,4-dioxo-1,2-dihydrothieno[2,3-d]pyrimidin-3(4H)-yl)ethyl)-4-(3-fluorophenyl)piperidine-3-carboxylate] |
| 153 to 154 | – | – | – | – | CCOC(=O)[C@H]1CN(CCn2c(=O)[nH]c3ccccc3c2=O)CC[C@H]1c1ccc(OC)cc1 (racemic) (as salt: HCl) [Compound 5r, (±)-syn-Ethyl 1-(2-(2,4-dioxo-1,2-dihydroquinazolin-3(4H),-yl)ethyl)-4-(4-methoxyphenyl) piperidine-3-carboxylate] |
| 194.8 to 196.1 | > 10 | 49 ± 1 | – | – | CCOC(=O)[C@@H]1CN(CCn2c(=O)[nH]c3ccccc3c2=O)CC[C@@H]1c1ccc(Cl)cc1 (racemic) [Compound 5oo, (±) syn-ethyl 4-(4-chlorophenyl)-1-(2-(2,4-dioxo-1,2-dihydroquinazolin-3(4H)-yl)ethyl)piperidine-3-carboxylate] |
| 174 to 175 | – | – | – | – | CCOC(=O)[C@H]1CN(CCn2c(=O)[nH]c3ccccc3c2=O)CC[C@H]1c1ccccc1C (racemic) (as salt: HCl) [Compound 5z, (±)-syn-Ethyl 1-(2-(2,4-dioxo-1,2-dihydroquinazolin-3(4H),-yl)ethyl)-4-(o-tolyl)piperidine-3-carboxylate] |
| 131.1 to 133 | – | – | – | – | CCOC(=O)[C@@H]1CN(CCn2c(=O)c3ccccc3n(C)c2=O)CC[C@@H]1c1ccc(F)cc1 (racemic) [Compound 6a, (±) syn-ethyl 4-(4-fluorophenyl)-1-(2-(1-methyl-2,4-dioxo-1,2-dihydroquinazolin-3(4H)-yl)ethyl)piperidine-3-carboxylate] |
| 148.5 to 149.7 | – | – | > 10 | 133 ± 52 | CCOC(=O)[C@H]1CN(CCCCn2c(=O)[nH]c3ccccc3c2=O)CC[C@H]1c1ccc(F)cc1 (racemic) [n=3, (±)-syn-Ethyl 1-(4-(2,4-dioxo-1,2-dihydroquinazolin-3(4H)-yl)butyl)-4-(4-fluorophenyl)piperidine-3-carboxylate] |
| 196.6 to 198.4 | > 10 | 100 ± 19 | – | – | CCOC(=O)[C@@H]1CN(CCn2c(=O)[nH]c3ccccc3c2=O)CC[C@@H]1c1ccc(F)c(F)c1 (racemic) [Compound 5ss, (±)-syn-Ethyl 4-(3,4-difluorophenyl)-1-(2-(2,4-dioxo-1,2-dihydroquinazolin-3(4H)-yl)ethyl)piperidine-3-carboxylate] |
| 190.3 to 191.5 | > 10 | 1470 ± 65 | – | – | CCOC(=O)[C@@H]1CN(CCn2c(=O)[nH]c3sccc3c2=O)CC[C@@H]1c1ccc(C(F)(F)F)cc1 (racemic) [Compound 7c, (±) syn-ethyl 1-(2-(2,4-dioxo-1,2-dihydrothieno[2,3-d]pyrimidin-3(4H)-yl)ethyl)-4-(4-(trifluoromethyl)phenyl)piperidine-3-carboxylate] |
| 167 to 168.5 | – | – | – | – | CCOC(=O)[C@H]1CN(CCn2c(=O)[nH]c3ccccc3c2=O)CC[C@H]1c1ccc(O)c(O)c1 (racemic) (as salt: HCl) [Compound 5ff, (±)-syn-Ethyl 4-(3,4-dihydroxyphenyl)-1-(2-(2,4-dioxo-1,2-dihydroquinazolin-3(4H)-yl)ethyl)piperidine-3-carboxylate] |
| 104.5 to 105.5 | – | – | – | – | CCOC(=O)[C@H]1CN(CCN2C(=O)c3ccccc3C2=O)CC[C@H]1c1ccc(F)cc1 (racemic) (as salt: HCl) [Example 144, (±)-syn-Ethyl 1-(2-(1,3-dioxoisoindolin-2-yl)ethyl)-4-(4-fluorophenyl)piperidine-3-carboxylate] |
| 148.5 to 150 | – | – | – | – | CCOC(=O)[C@H]1CN(CCn2c(=O)[nH]c3ccccc3c2=O)CC[C@H]1c1cccc(C)c1 (racemic) (as salt: HCl) [Compound 5y, (±)-syn-Ethyl 1-(2-(2,4-dioxo-1,2-dihydroquinazolin-3(4H),-yl)ethyl)-4-(m-tolyl)piperidine-3-carboxylate] |
| 216 to 217.4 | > 10 | 758 ± 165 | – | – | CCOC(=O)[C@@H]1CN(CCn2c(=O)[nH]c3ccccc3c2=O)CC[C@@H]1c1ccc([N+](=O)[O-])cc1 (racemic) [Compound 5tt, (±)-syn-Ethyl 4-(4-nitrophenyl)-1-(2-(2,4-dioxo-1,2-dihydroquinazolin-3(4H)-yl)ethyl)piperidine-3-carboxylate] |
| 150 to 152 | – | – | – | – | CCOC(=O)C1=C(c2ccc(F)cc2)CCN(CCn2c(=O)[nH]c3ccccc3c2=O)C1 |
| 198.8 to 201.4 | > 10 | 133 ± 20 | – | – | CCOC(=O)[C@@H]1CN(CCn2c(=O)[nH]c3sccc3c2=O)CC[C@@H]1c1ccc(F)cc1 (racemic) [Compound 7a, (±) syn-ethyl 1-(2-(2,4-dioxo-1,2-dihydrothieno[2,3-d]pyrimidin-3(4H)-yl)ethyl)-4-(4-fluorophenyl)piperidine-3-carboxylate] |
| 157.5 to 159 | – | – | – | – | CC(C)OC(=O)[C@H]1CN(CCn2c(=O)[nH]c3ccccc3c2=O)CC[C@H]1c1ccc(F)cc1 (racemic) (as salt: HCl) [Compound 10b, (±)-syn-Isopropyl 1-(2-(2,4-dioxo-1,2-dihydroquinazolin-3(4H),-yl)ethyl)-4-(4-fluorophenyl)piperidine-3-carboxylate] |
| 208 | – | – | – | – | O=c1[nH]c2ccccc2c(=O)n1CCN1CC=C(c2ccc(F)cc2)CC1 |
| 161.8 to 162.9 | > 9 | 34 ± 8 | – | – | CCOC(=O)[C@@H]1CN(CCn2c(=O)[nH]c3ccccc3c2=O)CC[C@@H]1c1cccc(Cl)c1 (racemic) [Compound 5pp, (±) syn-ethyl 4-(3-chlorophenyl)-1-(2-(2,4-dioxo-1,2-dihydroquinazolin-3(4H)-yl)ethyl)piperidine-3-carboxylate] |
| 134.9 to 136.4 | > 7 | 270 ± 53 | – | – | CCOC(=O)[C@@H]1CN(CCn2c(=O)c3ccccc3n(Cc3ccccc3)c2=O)CC[C@@H]1c1ccc(F)cc1 (racemic) [Compound 6c, (±) syn-ethyl 1-(2-(1-benzyl-2,4-dioxo-1,2-dihydroquinazolin-3(4H)-yl)ethyl)-4-(4-fluorophenyl)piperidine-3-carboxylate] |
| 263 to 264 | – | – | – | – | O=c1[nH]c2ccccc2c(=O)n1CCN1CCC(c2ccc(F)cc2)CC1 [Compound 16, 3-(2-(4-(4-fluorophenyl)piperidin-1-yl)ethyl)quinazoline-2,4(1H,3H)-dione] |

| Structure (SMILES) | melting point [°C] | Ki [1, 3] [µM] | IC50 [2, 4] [nM] | Ki [1] [µM] | IC50 [2] [nM] |
| --- | --- | --- | --- | --- | --- |
| CCOC(=O)[C@H]1CN(CCn2c(=O)[nH]c3ccccc3c2=O)CC[C@H]1c1cccc(N(C)C)c1 (racemic) (as salt: HCl) [Compound 5aa, (±)-syn-Ethyl 4-(3-(dimethylamino)phenyl)-1-(2-(2,4-dioxo-1,2-dihydroquinazolin-3(4H),-yl)ethyl) piperidine-3-carboxylate] | 179 to 180 | – | – | – | – |
